Patent US9878986B2, “Compounds for selective histone deacetylase inhibitors, and pharmaceutical composition comprising the same” (CHONG KUN DANG PHARMACEUTICAL CORP., priority 2013, dated 2018)

Assays:
HDAC 6 = target: T1, HDAC 6 (Homo sapiens, UniProt Q9UBN7); assay: Test of HDAC activities, HDAC6 (fluorimetric); format: biochemical; parameters: purchased Calbiochem 382180; conditions: samples at 0.1, 1, 10, 100, 1000 nM; 37° C. 60 minutes; fluorescence Ex 390, Em 460; read-out: HDAC inhibitory activities, HDAC6
T1 sequence (Q9UBN7 1-1215): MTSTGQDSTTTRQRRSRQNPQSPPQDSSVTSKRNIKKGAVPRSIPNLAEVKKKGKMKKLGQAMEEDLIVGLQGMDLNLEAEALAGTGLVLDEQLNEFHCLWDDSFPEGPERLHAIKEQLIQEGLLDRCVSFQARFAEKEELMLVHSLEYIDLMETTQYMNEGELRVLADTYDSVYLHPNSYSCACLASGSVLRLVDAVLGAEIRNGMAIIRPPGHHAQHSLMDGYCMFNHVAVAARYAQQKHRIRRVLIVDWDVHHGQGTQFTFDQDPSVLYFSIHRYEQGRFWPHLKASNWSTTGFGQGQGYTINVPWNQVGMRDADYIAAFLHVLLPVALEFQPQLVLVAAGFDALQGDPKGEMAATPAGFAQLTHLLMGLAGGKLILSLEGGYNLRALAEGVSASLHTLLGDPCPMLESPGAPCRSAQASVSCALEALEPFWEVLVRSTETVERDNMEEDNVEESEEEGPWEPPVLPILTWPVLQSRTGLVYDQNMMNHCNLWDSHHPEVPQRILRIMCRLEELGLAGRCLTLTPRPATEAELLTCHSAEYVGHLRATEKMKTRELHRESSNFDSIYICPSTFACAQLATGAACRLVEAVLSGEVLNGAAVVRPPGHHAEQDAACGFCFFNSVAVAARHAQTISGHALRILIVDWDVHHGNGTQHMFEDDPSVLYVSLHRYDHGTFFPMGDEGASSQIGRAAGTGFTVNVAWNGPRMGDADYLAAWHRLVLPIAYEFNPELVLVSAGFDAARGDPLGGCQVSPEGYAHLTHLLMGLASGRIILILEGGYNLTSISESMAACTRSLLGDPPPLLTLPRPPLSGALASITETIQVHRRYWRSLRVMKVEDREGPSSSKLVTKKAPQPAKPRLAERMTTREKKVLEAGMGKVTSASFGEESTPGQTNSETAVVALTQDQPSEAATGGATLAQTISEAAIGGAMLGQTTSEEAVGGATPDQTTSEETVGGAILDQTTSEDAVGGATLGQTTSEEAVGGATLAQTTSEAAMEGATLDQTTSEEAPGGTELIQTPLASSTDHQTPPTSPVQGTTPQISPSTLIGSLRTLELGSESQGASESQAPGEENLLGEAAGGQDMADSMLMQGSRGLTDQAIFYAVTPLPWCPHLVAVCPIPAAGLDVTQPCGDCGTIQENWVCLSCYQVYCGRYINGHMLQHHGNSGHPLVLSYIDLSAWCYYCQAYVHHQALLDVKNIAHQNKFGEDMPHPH
Experimental: (§1) The HDAC inhibitory activities of test materials were measured using the HDAC1 Fluorimetric Drug Discovery Assay Kit (Enzolifesciences: BML-AK511) and HDAC6 human recombinant (Calbiochem: 382180). In the HDAC1 assay, the samples were treated with concentrations of 100, 1000, and 10000 nM, and in the HDAC6 assay, the samples were treated with concentrations of 0.1, 1, 10, 100, and 1000 nM. After the treatment of the samples, the samples were reacted at 37° C. for 60 minutes, treated with a developer, and then reacted at 37° C. for 30 minutes. Then, the fluorescence intensity (Ex 390, Em 460) was measured using the FlexStation 3 (Molecular device).

HDAC1 = HDAC1 (Homo sapiens, UniProt Q13547); assay: Test of HDAC activities, HDAC1 Fluorimetric Drug Discovery Assay Kit; format: biochemical; parameters: purchased Enzolifesciences BML-AK511; conditions: samples at 100, 1000, 10000 nM; 37° C. 60 minutes; fluorescence Ex 390, Em 460; read-out: HDAC inhibitory activities, HDAC1
Chain of HDAC1 (Q13547 whole entry): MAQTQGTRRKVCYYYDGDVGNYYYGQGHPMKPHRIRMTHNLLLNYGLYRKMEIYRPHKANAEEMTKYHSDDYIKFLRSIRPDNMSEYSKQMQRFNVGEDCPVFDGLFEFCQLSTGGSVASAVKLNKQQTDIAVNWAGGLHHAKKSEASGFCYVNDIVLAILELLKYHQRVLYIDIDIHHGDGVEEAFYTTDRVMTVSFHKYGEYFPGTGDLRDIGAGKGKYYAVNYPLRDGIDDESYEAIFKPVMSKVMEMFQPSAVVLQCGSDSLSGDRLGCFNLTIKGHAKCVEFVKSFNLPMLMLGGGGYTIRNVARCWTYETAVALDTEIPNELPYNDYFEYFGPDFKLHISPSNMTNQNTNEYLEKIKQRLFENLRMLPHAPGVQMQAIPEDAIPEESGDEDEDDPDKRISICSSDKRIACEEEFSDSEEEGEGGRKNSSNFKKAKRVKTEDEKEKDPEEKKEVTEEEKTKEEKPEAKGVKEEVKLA
Experimental: as §1

IC50 (HDAC 6) [nM] | IC50 (HDAC1) [nM] | SMILES
5 | 3630 | O=C(NO)c1ccc(CN(C(=O)N2CCOCC2)c2cccc(CO)c2)cc1 [Compound 499, N-(4-(hydroxycarbamoyl)benzyl)-N-(3-(hydroxymethyl)phenyl)morpholine-4-carboxamide]
7 | 551 | Cn1ncc2cc(-c3cccc(N(Cc4ccc(C(=O)NO)cc4)C(=O)N4CCCCC4)c3)ccc21 [Compound 260, N-(4-(hydroxycarbamoyl)benzyl)-N-(3-(1-methyl-1H-indazol-5-yl)phenyl)piperidine-1-carboxamide]
1.1 | 585 | O=C(NO)c1ccc(CN(C(=O)N2CCOCC2)c2cccc(F)c2F)cc1 [Compound 791, N-(2,3-difluorophenyl)-N-(4-(hydroxycarbamoyl)benzyl)morpholine-4-carboxamide]
27 | 4710 | O=C(NO)c1ccc(CN(C(=O)N2CCC[C@H]2C(F)(F)F)c2cccc(C(F)(F)F)c2)cc1 [Compound 498, (S)—N-(4-(hydroxycarbamoyl)benzyl)-2-(trifluoromethyl)-N-(3-(trifluoromethyl)phenyl)pyrrolidine-1-carboxamide]
36.7 | 4140 | O=C(NO)c1ccc(CN(C(=O)N2CCCCC2)c2cccc(C(F)(F)F)n2)cc1 [Compound 828, N-(4-(hydroxycarbamoyl)benzyl)-N-(6-(trifluoromethyl)pyridin-2-yl)piperidine-1-carboxamide]
8 | 770 | COc1cc(-c2cccc(N(Cc3ccc(C(=O)NO)cc3)C(=O)N3CCOCC3)c2)cc(OC)c1OC [Compound 400, N-(4-(hydroxycarbamoyl)benzyl)-N-(3′,4′,5′-trimethoxybiphenyl-3-yl)morpholine-4-carboxamide]
2 | 632 | Cc1ccc(N(Cc2ccc(C(=O)NO)cc2)C(=O)N2CCOCC2)c(F)c1 [Compound 439, N-(2-fluoro-4-methylphenyl)-N-(4-(hydroxycarbamoyl)benzyl)morpholine-4-carboxamide]
9 | 4170 | O=C(NO)c1ccc(CN(C(=O)N2CCCC2)c2ccccn2)cc1 [Compound 358, N-(4-(hydroxycarbamoyl)benzyl)-N-(pyridin-2-yl)pyrrolidine-1-carboxamide]
2 | 930 | CN1CCN(C(=O)N(Cc2ccc(C(=O)NO)cc2)c2ccc(F)cc2F)CC1 [Compound 416, N-(2,4-difluorophenyl)-N-(4-(hydroxycarbamoyl)benzyl)-4-methylpiperazine-1-carboxamide]
6 | 151 | Cn1ncc2cc(-c3cccc(N(Cc4ccc(C(=O)NO)cc4)C(=O)N4CCOCC4)c3)ccc21 [Compound 252, N-(4-(hydroxycarbamoyl)benzyl)-N-(3-(1-methyl-1H-indazol-5-yl)phenyl)morpholine-4-carboxamide]
7 | 178 | O=C(NO)c1ccc(CN(C(=O)N2CCOCC2)c2cccc(Br)c2)c(F)c1 [Compound 487, N-(3-bromophenyl)-N-(2-fluoro-4-(hydroxycarbamoyl)benzyl)morpholine-4-carboxamide]
14 | 495 | CC(C)(F)CN1CCC(c2cccc(N(Cc3ccc(C(=O)NO)cc3)C(=O)N3CCOCC3)c2)CC1 [Compound 518, N-(3-(1-(2-fluoro-2-methylpropyl)piperidine-4-yl)phenyl)-N-(4-(hydroxycarbamoyl)benzyl)morpholine-4-carboxamide]
1 | 164 | O=C(NO)c1ccc(CN(C(=O)N2CCOCC2)c2cccc(-c3cccnc3)c2)cc1 [Compound 262, N-(4-(hydroxycarbamoyl)benzyl)-N-(3-(pyridin-3-yl)phenyl)morpholine-4-carboxamide]
14 | 1150 | O=C(NO)c1ccc(CN(C(=O)N2CCC2)c2cccc(-c3ccc4c(c3)OCO4)c2)cc1 [Compound 471, N-(3-(benzo[d][1,3]dioxol-5-yl)phenyl)-N-(4-(hydroxycarbamoyl)benzyl)azetidine-1-carboxamide]
7 | 302 | O=C(NO)c1ccc(CN(C(=O)N2CCOCC2)c2cccc(-c3ccc4c(c3)OCCO4)c2)cc1 [Compound 399, N-(3-(2,3-dihydrobenzo[b][1,4]dioxin-6-yl)phenyl)-N-(4-(hydroxycarbamoyl)benzyl)morpholine-4-carboxamide]
3 | 2120 | O=C(NO)c1ccc(CN(C(=O)N2CCOCC2)c2ccc(Cl)c(C(F)(F)F)c2)cc1 [Compound 391, N-(4-chloro-3-(trifluoromethyl)phenyl)-N-(4-(hydroxycarbamoyl)benzyl)morpholine-4-carboxamide]
5 | 4810 | O=C(NO)c1ccc(CN(C(=O)N2CCN(C(=O)C3CC3)CC2)c2ccccn2)cc1 [Compound 451, 4-(cyclopropanecarbonyl)-N-(4-(hydroxycarbamoyl)benzyl)-N-(pyridin-2-yl)piperazine-1-carboxamide]
28 | 427 | CC(C)(O)CN1CCC(c2cccc(N(Cc3ccc(C(=O)NO)cc3)C(=O)N3CCOCC3)c2)CC1 [Compound 517, N-(3-(1-(2-hydroxy-2-methylpropyl)piperidine-4-yl)phenyl)-N-(4-(hydroxycarbamoyl)benzyl)morpholine-4-carboxamide]
78 | 633 | CC1CN(C(=O)N(Cc2ccc(C(=O)NO)cc2)c2cccc(OC(F)(F)F)c2)CC(C)O1 (stereo not drawn) [Compound 800, N-(4-(hydroxycarbamoyl)benzyl)-2,6-dimethyl-N-(3-(trifluoromethoxy)phenyl)morpholine-4-carboxamide]
5 | 1320 | COc1ccccc1N1CCN(C(=O)N(Cc2ccc(C(=O)NO)cc2)c2ccc(C)cc2F)CC1 [Compound 454, N-(2-fluoro-4-methylphenyl)-N-(4-(hydroxycarbamoyl)benzyl)-4-(2-methoxyphenyl)piperazine-1-carboxamide]
1 | 1170 | O=C(NO)c1ccc(CN(C(=O)N2CCCCC2)c2ccc(F)cc2F)cc1 [Compound 414, N-(2,4-difluorophenyl)-N-(4-(hydroxycarbamoyl)benzyl)piperidine-1-carboxamide]
1 | 1120 | O=C(NO)c1ccc(CN(C(=O)N2CC[C@H](F)C2)c2cccc(C(F)(F)F)c2)cc1 [Compound 496, (S)-3-fluoro-N-(4-(hydroxycarbamoyl)benzyl)-N-(3-(trifluoromethyl)phenyl)pyrrolidine-1-carboxamide]
5 |  | O=C(NO)c1ccc(CN(C(=O)N2CCC2)c2ccccn2)cc1 [Compound 377, N-(4-(hydroxycarbamoyl)benzyl)-N-(pyridin-2-yl)azetidine-1-carboxamide]
4 |  | Cc1ccc(N2CCN(C(=O)N(Cc3ccc(C(=O)NO)cc3)c3ccccn3)CC2)cc1C [Compound 379, 4-(3,4-dimethylphenyl)-N-(4-(hydroxycarbamoyl)benzyl)-N-(pyridin-2-yl)piperazine-1-carboxamide]
3 |  | O=C(NO)c1ccc(CN(C(=O)N2CCN(Cc3ccccc3)CC2)c2ncccn2)cc1 [Compound 309, 4-benzyl-N-(4-(hydroxycarbamoyl)benzyl)-N-(pyrimidin-2-yl)piperazine-1-carboxamide]
4 |  | CN1CCCN(C(=O)N(Cc2ccc(C(=O)NO)cc2)c2ccccn2)CC1 [Compound 376, N-(4-(hydroxycarbamoyl)benzyl)-4-methyl-N-(pyridin-2-yl)-1,4-diazepane-1-carboxamide]
